Assay results from patent US20230218631A1 (priority 2020, published 2023).

Tested on: EHMT2/G9A, H3K9me2
[1] = 4-week CIE vs Air, same animals, FIG. 1C

## CCO [ethanol]
[1]
  EHMT2/G9A in dorsal striatum: no changes
  H3K9me2 in dorsal striatum: no changes
4-week CIE vs Air, FIG. 1B
  reduction of H3K9me2 levels in NAc: ~40%
  total histone H3 protein in NAc: no changes
4 weeks CIE vs Air, immunoblot, FIG. 1B
  reduction in NAc EHMT2/G9A protein levels: > 30%
